Experimental data taken from US20250017211A1, “SOLID P[…] CONTROL COMPOSITIONS AND METHODS” (Control Solutions, Inc., priority 2021, published 2025).

Legend:
[1] = tested on: all white grubs (scarab larvae); test: Preventive control of scarab larvae in Kentucky bluegrass, first study, all white grubs; assay type: in vivo, scarab beetle larvae; conditions: study of Example 5
Excerpt: The primary objectives of this study were to evaluate the influence of application rate and timing on the efficacy of novaluran applied preventively against scarab larvae in cool-season turfgrass. The experiment was located on a stand of turfgrass consisting primarily of Kentucky bluegrass maintained at 7.6 cm. Plots measuring 5×5 ft were arranged in a randomized complete-block design with 2 ft alleys between plots. […] Each treatment was replicated 4 times. Plots were irrigated Immediately after each set of applications (0.1″).
Japanese beetle larval infestations were created by driving two, 20.3 cm diameter PVC cylinders into each plot along its mid-line and caging one group of 40 Japanese beetle adults (50:50 sex ratio) within each cylinder during early July. Scarab larval populations were assessed Oct. 12-16, 2019 using a sod cutter to remove a strip of sod lying directly beneath the caging area of each plot and examining the soil to a depth of 3 inches. All scarab larvae recovered from the plots were identified to genus level, counted and recorded. Variation in scarab larval populations was examined using main effects ANOVA and treatment means were compared using Fisher's LSD test (α=0.05). Treatments and application dates were as described in Table 3.

[2] = tested on: white grubs (Japanese beetles and masked chafers); test: Preventive control of white grubs in Kentucky bluegrass, second study; assay type: in vivo, scarab beetle larvae; conditions: instant (second) study
Experimental: As with the study of Example 5 above, the purpose of this study was to evaluate rates and timings of novaluron and a wetting agent (Syringe) for controlling white grubs in turfgrass. A trial was conducted on Kentucky bluegrass maintained at a height of 7.6 cm. A randomized complete block design with 4 replications of 5′×5′ plots were used. Treatments were applied and all plots were watered in (0.1″) immediately after application. Treatments and application dates were as described in Table 4. Caged Japanese beetle adults (20 male: 20 female) were placed within each plot. Plots were assessed using a sod cutter set to 3″ depth. All scarab beetle larvae recovered were identified to genus level.

Question: With O=C(NC(=O)c1c(F)cccc1F)Nc1ccc(OC(F)(F)C(F)OC(F)(F)F)c(Cl)c1 (stereo not shown) [Novaluron, novaluron] as the compound, how does the Control ([1]; 0.675 lb ai/A) read?
Answer: 46-72%

Question: And the Control ([1]; 0.9 lb ai/A)?
Answer: 45-56%

Question: And the Control ([2]; 0.675 lb ai/A)?
Answer: 84-90%

Question: What about the Control ([2]; 0.9 lb ai/A) of the same compound?
Answer: 84-90%
